Results taken from publication PMC12608155, “Discovery of Potential Antileishmanial Compounds Through Phenotypic Screening of an Alkaloid Library” (Molecules, 2025).
Where two headings read alike, the source gives them in different places.

How the values were obtained:
[1] = test system: L. donovani IRFP axenic amastigotes; experiment: Primary single-concentration screening on axenic amastigotes, growth inhibition at 72 h; type: cell-based, Leishmania donovani; conditions: axenic amastigotes; for inhibition at 1 µM / inhibition at 10 µM: Leishmania donovani; for inhibition at 1 µM / Growth Inhibition (%) at 72h, 1 µM_Exp1 / Growth Inhibition (%) at 72h, 1 µM_Exp2: 1 µM; for inhibition at 10 µM / Growth Inhibition (%) at 72h, 10 µM_Exp1 / Growth Inhibition (%) at 72h, 10 µM_Exp2: 10 µM
[2] = test system: L. donovani IRFP axenic amastigotes; experiment: Dose-response assay on axenic amastigotes; type: cell-based, Leishmania donovani
Method: The objective of the present study was to identify new antileishmanial drug candidates by screening a commercial library of plant-derived alkaloids using a platform based on axenic amastigotes of L. donovani IRFP—the causative agent of VL—genetically modified to emit infrared fluorescence during their viable stage (hereafter referred to as L. donovani IRFP). To this end, single-dose assays at 10 μM and 1 μM, as well as dose–response assays, were performed. Compounds showing significant activity in the initial screening were subsequently clustered according to chemical structure using the DataWarrior tool, and representative compounds were further evaluated in dose response assays against axenic amastigotes.
Female Balb/c mice aged from 6 to 8 weeks were intraperitoneally inoculated with 1.5 × 10^9 infective L. donovani IRFP metacyclic promastigotes. Between 8 and 12 weeks after infection, mice were humanely euthanised and bone marrow was collected from the femurs and tibias of both hind limbs. The bones were cut at both ends, and prewarmed PBS was flushed through the medullary cavity using a syringe fitted with a 27G needle, to extract the bone marrow cells. The resulting cell suspension was filtered through a 100 µm cell strainer and centrifuged at 2500 rpm for 10 min at room temperature. To obtain free amastigotes, the pelleted cells were resuspended within a 75 mL ventilated flask in amastigote culture medium (15 mM KCl; 136 mM KH2PO4; 10 mM K2HPO4.3H2O; 0.5 mM MgSO4.7 H2O; 24 mM NaHCO3; 22 mM glucose; 1 mM glutamine, 1x RPMI 1640 vitamin mix (Sigma-Aldrich, Merck, Darmstadt, Germany), 10 mM folic acid, […], 1x RPMI amino acid mix (Sigma-Aldrich, Merck, Darmstadt, Germany), […], antibiotic mixture, 25 mM MES, 10% FBS (Gibco, ThermoFisher Scientific, Waltham, MA, USA) and incubated at 37 °C in a humidified atmosphere containing 5% CO2 [46].
The efficacy of the selected compounds was assessed by measuring near-infrared fluorescence (700 nm) using an Odyssey Infrared Imaging System (Li-Cor, Lincoln, NE, USA) following the previously described protocols.

[3] = test system: L. donovani IRFP intramacrophagic amastigotes; experiment: Dose-response assay on ex vivo infected splenic explants (intramacrophagic amastigotes); type: cell-based, Leishmania donovani; conditions: read-out: EC50 Intramacrophagic Amastigotes
[4] = Cytotoxicity in RAW 264.7 cells (alamarBlue, 72 h); conditions: mouse
Method: (§1) To this end, we calculated SIs from 16 preselected results from the ex vivo system. With this aim, dose–response curves were performed in duplicate across at least three independent experiments using RAW 264.7 mouse macrophages (as a model of host cells harboring amastigotes) and HepG2 (as a model for assessing systemic toxicity).
(§2) To evaluate the safety of the selected compounds, two cell lines were employed: RAW 264.7 (a mouse macrophage-derived cell line) and HepG2 (a human hepatoma cell line). Furthermore, to determine the intestinal tolerance relevant to potential oral administration, mouse intestinal organoids were prepared.
(§3) RAW 264.7 and HepG2 were routinely cultured under standard conditions. RAW 264.7 cells were maintained in RPMI medium (Gibco) supplemented with, 25 mM HEPES, 24 mM NaHCO3, 2 mM L-glutamine, mixture of antibiotics and 10% FBS. HepG2 cells were cultured in DMEM/F-12 (Gibco) and supplemented 10% of FBS. For cytotoxicity assays, 10,000 cells per well were seeded into 96-well plates and incubated overnight at 37 °C with 5% of CO2. Subsequently, 2-fold serial dilutions of the compounds were added and incubated for 72 h. Cell viability using the alamarBlue™ assay according to the manufacturer’s instructions, and fluorescence was measured with a Varioskan™ LUX microplate reader (ThermoFisher Scientific, Waltham, MA, USA). Non-linear regression analyses were performed using SigmaPlot^TM software (version 10.0) to calculate CC50. Data were obtained from at least three independent experiments performed in duplicate.

[5] = Cytotoxicity in HepG2 cells (alamarBlue, 72 h); conditions: human
Method: as §1, §2, §3

[6] = Tolerance of mouse intestinal organoids (alamarBlue); type: cell-based; conditions: C57BL/6, mouse, mouse intestinal organoids (from duodenal crypts); 72 h incubation, Figure S4; read-out: CC50 mouse intestinal organoids
Text: (§4) Mouse intestinal organoids were generated following protocols standardized previously. Briefly, to obtain adult intestine stem cells, C57BL/6 mice were humanely euthanized. A section of the duodenum was excised, rinsed in ice-cold PBS, and cut into small pieces for gentle dissociation using Gentle Cell Dissociation Reagent. Tissue fragments enriched in duodenal crypts and little tissue debris were microscopically selected and resuspended in a 1:1 mixture of Geltrex™ and IntestiCult™ Mouse Medium (Gibco, ThermoFisher Scientific, Waltham, MA, USA /Stemcell Technologies^TM, Vancouver, BC, Canada). Aliquots of 50 µL of this suspension were dispensed into the center of each well of a prewarmed 24-well plate to form domes containing organoids, which were then incubated to allow matrix polymerization. Then, […] of IntestiCult™ Mouse Medium was added to each well. The plate was incubated at 37 °C in a humidified atmosphere containing 5% CO2, and the culture medium was refreshed every 48 h. During this period, organoids continued to proliferate, and passaging was performed at a 1:4 ratio every 7–10 days.
(§5) To determine the in vitro tolerance to oral administration of the active compounds, a 384-well assay was adapted from the protocol described by Du and co-workers. Briefly, following medium removal, organoids were collected from the extracellular matrix using the same procedure as for passaging. The resulting pellet was resuspended in 3.2 mL of a 1:1 mixture of Geltrex™ LDEV-Free Reduced Growth Factor Basement Membrane Matrix (without phenol red, Gibco) and IntestiCult™ Mouse Medium. Using a chilled pipette dispenser, 8 µL of the organoid suspension was dispensed into pre-cooled 384-well plates, which were then gently agitated to evenly distribute the matrix. The plates were incubated at 37 °C for 10 min and then, 32 µL of IntestiCult™ Mouse Medium was added to each well. To prevent edge effects, 100 µL of sterile water was added to the perimeter wells. After 3 days of culture, 10 µL per well of the test compounds dissolved in IntestiCult™ Mouse Medium were added. Positive (0.03% H2O2) and negative (0.2% DMSO) controls were included in each assay. After 72 h of incubation, 5 µL of alamarBlue™ HS were added to each well, and fluorescence was measured after 24 h using a Varioskan™ LUX microplate reader. All assays were conducted in triplicate and repeated in at least three independent experiments.

RAW 264.7 = experiment: Cytotoxicity in RAW 264.7 cells (alamarBlue, 72 h); conditions: read-out: CC50 RAW 264.7; 72 h, alamarBlue
Method: as §1, §2, §3

HepG2 = experiment: Cytotoxicity in HepG2 cells (alamarBlue, 72 h); conditions: read-out: CC50 HepG2; 72 h, alamarBlue
Method: as §1, §2, §3

[7] = test system: axenic amastigotes of L. amazonensis; design: method as in PMID 25029171; conditions: compared with glucantime; cited from earlier work
Leishmania amazonensis = test system: Leishmania amazonensis; design: method as in PMID 25029171; conditions: cited from earlier work
[8] = test system: mouse intestinal organoids; experiment: Tolerance of mouse intestinal organoids (alamarBlue); type: cell-based; conditions: 72 h incubation, Figure S4
Text: as §4, §5

[9] = experiment 1, 72 h, read-out: Growth Inhibition (%) at 72h, 1 µM_Exp1
[10] = experiment 2, 72 h, read-out: Growth Inhibition (%) at 72h, 1 µM_Exp2
[11] = experiment 1, 72 h, read-out: Growth Inhibition (%) at 72h, 10 µM_Exp1
[12] = experiment 2, 72 h, read-out: Growth Inhibition (%) at 72h, 10 µM_Exp2
[13] = Leishmania donovani, Splenocyte, primary cultures of infected mouse splenocytes
[14] = primary cultures of infected mouse splenocytes

Row | SMILES | inhibition at 1 µM [1, 9] | inhibition at 1 µM [1, 10] | inhibition at 10 µM [1, 11] | inhibition at 10 µM [1, 12] | IC50 ([2]; Leishmania donovani) | EC50 [3, 13] | CC50 at 72 h ([4]; RAW 264.7 macrophage cells) | CC50 at 72 h ([5]; HepG2 hepatoma cells) | Growth Inhibition (%) at 72h, 1 µM_Exp1 ([1]; experiment 1, 72 h) | Growth Inhibition (%) at 72h, 1 µM_Exp2 ([1]; experiment 2, 72 h) | Growth Inhibition (%) at 72h, 10 µM_Exp1 ([1]; experiment 1, 72 h) | Growth Inhibition (%) at 72h, 10 µM_Exp2 ([1]; experiment 2, 72 h) | IC50 [2] | EC50 [3, 14] | CC50 (RAW 264.7) | CC50 (HepG2) | further results
1 | COc1cc2c(cc1OC)-c1c(C)c3ccc(OC)c(OC)c3c[n+]1CC2 [Dehydrocorydaline] | 19.1% | -42.6% | 81.7% | 88.3% | 2810 ± 490 nM | 2680 ± 110 nM | > 10000 nM | > 10000 nM | – | – | – | – | – | – | – | – | CC50 at 72 h [6]: > 50000 nM
2 | CCOC1c2c(ccc3c2OCO3)-c2ccc3cc4c(cc3c2N1C)OCO4 (stereo not shown) [Ethoxysanguinarine] | – | – | – | – | – | – | – | – | 100.74% | 99.44% | 100.41% | 100.07% | 210 ± 30 nM | 840 ± 30 nM | 1620 ± 110 nM | 1440 ± 30 nM | –
3 | COc1cc2c[n+](C)c3c4cc5c(cc4ccc3c2cc1OC)OCO5 [Nitidine] | 45% | 69.6% | 100% | 99.7% | 270 ± 10 nM | 650 ± 30 nM | 2010 ± 160 nM | 490 ± 20 nM | – | – | – | – | – | – | – | – | in vitro IC50 values against axenic amastigotes of L. amazonensis [7]: very similar to those of glucantime; antileishmanial effect in vivo (Leishmania amazonensis): moderate
4 | c1c2c(cc3c1OCO3)-c1cc3cc4c(cc3c[n+]1CC2)OCO4 [Pseudocoptisine] | – | – | – | – | – | – | – | – | 65.54% | 88.42% | 97.95% | 99.04% | 810 ± 120 nM | 1430 ± 70 nM | > 10000 nM | > 10000 nM | CC50 [8]: > 10000 nM
5 | C[n+]1cc2c3c(ccc2c2ccc4cc5c(cc4c21)OCO5)OCO3 [Sanguinarine] | 99.7% | 99.5% | 100% | 101% | 190 ± 10 nM | – | 1840 ± 60 nM | 2080 ± 60 nM | – | – | – | – | – | – | – | – | EC50 ([3]; Leishmania donovani, Splenocyte, in Mus musculus): 850 ± 30 nM
6 | CC[C@@H]1[C@H]2CCCCN3[C@H]2[C@H](C[C@H]3[C@@H]2C[C@H](C)C(=O)O2)[C@@H]2[C@H]1OC(=O)[C@H]2C [Tuberostemonine] | 63.6% | 53% | 102% | 101% | 2060 ± 110 nM | > 50000 nM | – | – | – | – | – | – | – | – | – | – | CC50 at 72 h [4]: 50000 ± 5510 nM; CC50 at 72 h [5]: > 40000 nM
